# Publication PMC5218480 (PLoS ONE, 2017)
# Tested on: MV-4-11 cells
# Assay: Gene expression microarray analysis (Affymetrix PrimeView) and GSEA
# Format: cell-based, human
# Design: RFU PODN (11730768_x_at) / Fold change /veh PODN (11730768_x_at) / RFU LINC00158 (11744669_a_at) / Fold change /veh LINC00158 (11744669_a_at) / RFU DUSP10 (11751237_a_at) / Fold change /veh DUSP10 (11751237_a_at) / RFU ID3 (11757404_x_at) / Fold change /veh ID3 (11757404_x_at) / RFU PLEKHG5 (11737974_s_at) / Fold change /veh PLEKHG5 (11737974_s_at) / RFU LRRC4B (11730491_at) / Fold change /veh LRRC4B (11730491_at) / RFU GIMAP4 (11747438_a_at) / Fold change /veh GIMAP4 (11747438_a_at) / RFU KRT8 (11758183_x_at) / Fold change /veh KRT8 (11758183_x_at) / RFU CNN1 (11734310_a_at) / Fold change /veh CNN1 (11734310_a_at) / RFU VPS37D (11726825_at) / Fold change /veh VPS37D (11726825_at) / RFU C10orf10 (11716522_x_at) / Fold change /veh C10orf10 (11716522_x_at) / RFU KIR2DL2 /// KIR2DL4 /// KIR2DL5A /// KIR2DL5B /// KIR2DS1 /// KIR2DS2 /// KIR2DS3 /// KIR2DS4 /// KIR3DL3 /// KIR3DL3 /// KIR3DS1 (11738374_at) / Fold change /veh KIR2DL2 /// KIR2DL4 /// KIR2DL5A /// KIR2DL5B /// KIR2DS1 /// KIR2DS2 /// KIR2DS3 /// KIR2DS4 /// KIR3DL3 /// KIR3DL3 /// KIR3DS1 (11738374_at) / RFU C1QL1 (11718748_at) / Fold change /veh C1QL1 (11718748_at) / RFU TMPRSS4 (11747572_a_at) / Fold change /veh TMPRSS4 (11747572_a_at) / RFU HAMP (11756126_x_at) / Fold change /veh HAMP (11756126_x_at) / RFU RNFT2 (11725882_a_at) / Fold change /veh RNFT2 (11725882_a_at) / RFU NR4A2 (11747474_a_at) / Fold change /veh NR4A2 (11747474_a_at) / RFU ABCC12 (11746883_a_at) / Fold change /veh ABCC12 (11746883_a_at) / RFU TMEM136 (11760407_x_at) / Fold change /veh TMEM136 (11760407_x_at) / RFU CLDN22 /// WWC2 (11732394_at) / Fold change /veh CLDN22 /// WWC2 (11732394_at) / RFU HLA-DPB1 (11760878_x_at) / Fold change /veh HLA-DPB1 (11760878_x_at) / RFU SPINT1 (11716480_a_at) / Fold change /veh SPINT1 (11716480_a_at) / RFU GAP43 (11754022_s_at) / Fold change /veh GAP43 (11754022_s_at) / RFU A4GNT (11735810_at) / Fold change /veh A4GNT (11735810_at) / RFU PRB3 (11715151_x_at) / Fold change /veh PRB3 (11715151_x_at) / RFU TUBB4B (11761932_at) / Fold change /veh TUBB4B (11761932_at) / RFU CAPN14 (11732068_a_at) / Fold change /veh CAPN14 (11732068_a_at) / RFU TMCC2 (11721928_a_at) / Fold change /veh TMCC2 (11721928_a_at) / RFU IRGQ (11745062_a_at) / Fold change /veh IRGQ (11745062_a_at) / RFU FAM174B (11720279_a_at) / Fold change /veh FAM174B (11720279_a_at) / RFU TMPRSS4 (11748680_a_at) / Fold change /veh TMPRSS4 (11748680_a_at) / RFU FAM212B (11763350_a_at) / Fold change /veh FAM212B (11763350_a_at) / RFU PLEKHG5 (11743358_a_at) / Fold change /veh PLEKHG5 (11743358_a_at) / RFU ZSCAN30 (11745921_a_at) / Fold change /veh ZSCAN30 (11745921_a_at) / RFU CMKLR1 (11741424_a_at) / Fold change /veh CMKLR1 (11741424_a_at) / RFU LOC101060620 /// MAPK8IP1 (11723275_at) / Fold change /veh LOC101060620 /// MAPK8IP1 (11723275_at) / RFU SPTSSB (11747773_x_at) / Fold change /veh SPTSSB (11747773_x_at) / RFU PRSS12 (11739890_at) / Fold change /veh PRSS12 (11739890_at) / RFU BIN1 (11741810_x_at) / Fold change /veh BIN1 (11741810_x_at) / RFU WNT11 (11732464_a_at) / Fold change /veh WNT11 (11732464_a_at) / RFU C10orf10 (11716521_a_at) / Fold change /veh C10orf10 (11716521_a_at) / RFU C5orf56 (11738089_at) / Fold change /veh C5orf56 (11738089_at) / RFU CYB561 (11721691_x_at) / Fold change /veh CYB561 (11721691_x_at) / RFU ANKRD19P (11752326_a_at) / Fold change /veh ANKRD19P (11752326_a_at) / RFU OR2T12 /// OR2T33 /// OR2T8 (11738714_s_at) / Fold change /veh OR2T12 /// OR2T33 /// OR2T8 (11738714_s_at) / RFU VCAN (11748164_a_at) / Fold change /veh VCAN (11748164_a_at) / RFU JSRP1 (11732532_at) / Fold change /veh JSRP1 (11732532_at) / RFU KRTAP10-11 (11738290_x_at) / Fold change /veh KRTAP10-11 (11738290_x_at) / RFU MYO3A (11730013_a_at) / Fold change /veh MYO3A (11730013_a_at) / RFU EBF3 (11725865_a_at) / Fold change /veh EBF3 (11725865_a_at) / RFU CAMK2N1 (11719241_x_at) / Fold change /veh CAMK2N1 (11719241_x_at) / RFU C5orf56 (11738088_a_at) / Fold change /veh C5orf56 (11738088_a_at) / RFU OLFML3 (11715873_a_at) / Fold change /veh OLFML3 (11715873_a_at) / RFU LOC100653217 /// NTM (11731650_a_at) / Fold change /veh LOC100653217 /// NTM (11731650_a_at) / RFU MAPK11 (11762145_a_at) / Fold change /veh MAPK11 (11762145_a_at) / RFU FIZ1 (11724087_x_at) / Fold change /veh FIZ1 (11724087_x_at) / RFU OASL (11726364_x_at) / Fold change /veh OASL (11726364_x_at) / RFU SOX15 (11748057_x_at) / Fold change /veh SOX15 (11748057_x_at) / RFU CD79A (11719716_a_at) / Fold change /veh CD79A (11719716_a_at) / RFU HIST1H1D (11736915_at) / Fold change /veh HIST1H1D (11736915_at) / RFU CASKIN2 (11723855_a_at) / Fold change /veh CASKIN2 (11723855_a_at) / RFU LOC730098 (11760151_x_at) / Fold change /veh LOC730098 (11760151_x_at) / RFU OR4N2 (11742367_at) / Fold change /veh OR4N2 (11742367_at) / RFU PRRT2 (11749266_a_at) / Fold change /veh PRRT2 (11749266_a_at) / RFU SNX32 (11753110_a_at) / Fold change /veh SNX32 (11753110_a_at) / RFU CDHR5 (11726645_a_at) / Fold change /veh CDHR5 (11726645_a_at) / RFU RCAN1 (11760418_a_at) / Fold change /veh RCAN1 (11760418_a_at) / RFU FAM167A (11723789_a_at) / Fold change /veh FAM167A (11723789_a_at) / RFU FAM26E (11764081_at) / Fold change /veh FAM26E (11764081_at) / RFU ISYNA1 (11749810_s_at) / Fold change /veh ISYNA1 (11749810_s_at) / RFU ACY1 (11761880_at) / Fold change /veh ACY1 (11761880_at) / RFU 11764098_at / Fold change /veh 11764098_at / RFU SAMD14 (11745864_x_at) / Fold change /veh SAMD14 (11745864_x_at) / RFU NPB (11741838_a_at) / Fold change /veh NPB (11741838_a_at) / RFU TMPRSS6 (11731388_a_at) / Fold change /veh TMPRSS6 (11731388_a_at) / RFU KRTAP10-2 (11738614_at) / Fold change /veh KRTAP10-2 (11738614_at) / RFU ARHGAP8 /// PRR5-ARHGAP8 (11727945_x_at) / Fold change /veh ARHGAP8 /// PRR5-ARHGAP8 (11727945_x_at) / RFU KRTAP5-7 /// NADSYN1 (11734609_at) / Fold change /veh KRTAP5-7 /// NADSYN1 (11734609_at) / RFU RASL12 (11751679_a_at) / Fold change /veh RASL12 (11751679_a_at) / RFU CDKN2B (11736163_a_at) / Fold change /veh CDKN2B (11736163_a_at) / RFU PRF1 (11729649_at) / Fold change /veh PRF1 (11729649_at) / RFU, ZNF638 /// ZNF638-IT1 / Fold change vs veh, ZNF638 /// ZNF638-IT1 / RFU, PANK3 / Fold change vs veh, PANK3 / RFU, SH3YL1 / Fold change vs veh, SH3YL1 / RFU, ZEB2 / Fold change vs veh, ZEB2 / RFU, NRIP1 / Fold change vs veh, NRIP1 / RFU, PTTG1IP / Fold change vs veh, PTTG1IP / RFU, CAPN2 / Fold change vs veh, CAPN2 / RFU, MED14 / Fold change vs veh, MED14 / RFU, SNORA58 / Fold change vs veh, SNORA58 / RFU, C1orf63 / Fold change vs veh, C1orf63 / RFU, LRRFIP1 / Fold change vs veh, LRRFIP1 / RFU, NDUFAF7 / Fold change vs veh, NDUFAF7 / RFU, SLC12A2 / Fold change vs veh, SLC12A2 / RFU, IBTK / Fold change vs veh, IBTK / RFU, ESF1 / Fold change vs veh, ESF1 / Fold change vs veh, TMEM50B / RFU, TAOK1 / Fold change vs veh, TAOK1 / RFU, ACBD3 / Fold change vs veh, ACBD3 / RFU, TMA16 / Fold change vs veh, TMA16 / RFU, RWDD3 / Fold change vs veh, RWDD3 / RFU, BCAT1 / Fold change vs veh, BCAT1 / RFU, EDEM3 / Fold change vs veh, EDEM3 / RFU, TMEM33 / Fold change vs veh, TMEM33 / RFU, WDR75 / Fold change vs veh, WDR75 / RFU, AHCTF1 / Fold change vs veh, AHCTF1 / RFU, TFRC / Fold change vs veh, TFRC / RFU, ZDHHC17 / Fold change vs veh, ZDHHC17 / RFU, NOM1 / Fold change vs veh, NOM1 / RFU, ARL8B / Fold change vs veh, ARL8B / RFU, ZBTB11 / Fold change vs veh, ZBTB11 / RFU, TAMM41 / Fold change vs veh, TAMM41 / RFU, KIAA1704 /// LOC100996395 / Fold change vs veh, KIAA1704 /// LOC100996395 / RFU, ING1 / Fold change vs veh, ING1 / RFU, TRMT61B / Fold change vs veh, TRMT61B / RFU, FUBP3 / Fold change vs veh, FUBP3 / RFU, TP53 / Fold change vs veh, TP53 / RFU, TNKS2 / Fold change vs veh, TNKS2 / RFU, ZFP14 / Fold change vs veh, ZFP14 / RFU, ACTR2 / Fold change vs veh, ACTR2 / RFU, PPP3R1 / Fold change vs veh, PPP3R1 / RFU, PIK3R1 / Fold change vs veh, PIK3R1 / RFU, HNRNPA1 / Fold change vs veh, HNRNPA1 / RFU, RNF170 / Fold change vs veh, RNF170 / RFU, ZNF28 / Fold change vs veh, ZNF28 / RFU, RNGTT / Fold change vs veh, RNGTT / RFU, OGT / Fold change vs veh, OGT / RFU, BRD1 / Fold change vs veh, BRD1 / RFU, MARS / Fold change vs veh, MARS / RFU, ZNF655 / Fold change vs veh, ZNF655 / RFU, FAHD1 / Fold change vs veh, FAHD1 / RFU, BDP1 / Fold change vs veh, BDP1 / RFU, LRRCC1 / Fold change vs veh, LRRCC1 / RFU, ARID1A / Fold change vs veh, ARID1A / RFU, ZNF146 / Fold change vs veh, ZNF146 / RFU, ZNF330 / Fold change vs veh, ZNF330 / RFU, GPN3 / Fold change vs veh, GPN3 / RFU, C9orf123 / Fold change vs veh, C9orf123 / RFU, N4BP2L2 / Fold change vs veh, N4BP2L2 / RFU, ARFIP1 / Fold change vs veh, ARFIP1 / RFU, FAM179B / Fold change vs veh, FAM179B / RFU, BCL10 / Fold change vs veh, BCL10 / RFU, UHRF1BP1L / Fold change vs veh, UHRF1BP1L / RFU, BET1 / Fold change vs veh, BET1 / RFU, CNOT2 / Fold change vs veh, CNOT2 / RFU, ZNF268 / Fold change vs veh, ZNF268 / Fold change vs veh, ZNF507 / RFU, DGCR2 / Fold change vs veh, DGCR2 / RFU, WDSUB1 / Fold change vs veh, WDSUB1 / Fold change vs veh, HSP90B1 /// MIR3652 / RFU, ADSS / Fold change vs veh, ADSS / RFU, GK / Fold change vs veh, GK / RFU, ZNF148 / Fold change vs veh, ZNF148 / RFU, TAF9 / Fold change vs veh, TAF9 / RFU, SLC1A5 / Fold change vs veh, SLC1A5 / RFU, SLMO2 / Fold change vs veh, SLMO2 / RFU, ABCC4 / Fold change vs veh, ABCC4 / RFU, LOC101060439 /// RAP1B / Fold change vs veh, LOC101060439 /// RAP1B / RFU, RFX7 / Fold change vs veh, RFX7 / RFU, GTPBP10 / Fold change vs veh, GTPBP10 / RFU, CNEP1R1 / Fold change vs veh, CNEP1R1 / RFU, BIVM-ERCC5 /// ERCC5 / Fold change vs veh, BIVM-ERCC5 /// ERCC5 / RFU, ILF3 / Fold change vs veh, ILF3 / RFU 11762660_at / Fold change /veh 11762660_at / RFU VCAN (11757783_s_at) / Fold change /veh VCAN (11757783_s_at) / RFU DDX43 (11728927_at) / Fold change /veh DDX43 (11728927_at) / RFU KRT8 (11758188_x_at) / Fold change /veh KRT8 (11758188_x_at) / RFU NKD1 (11759106_at) / Fold change /veh NKD1 (11759106_at) / RFU SRD5A1 (11742802_a_at) / Fold change /veh SRD5A1 (11742802_a_at) / RFU TPSAB1 /// TPSB2 (11721975_s_at) / Fold change /veh TPSAB1 /// TPSB2 (11721975_s_at) / RFU GSTM3 (11746129_a_at) / Fold change /veh GSTM3 (11746129_a_at) / RFU IL23R (11737362_x_at) / Fold change /veh IL23R (11737362_x_at) / RFU TMEM51 (11727254_a_at) / Fold change /veh TMEM51 (11727254_a_at) / RFU PIWIL2 (11732686_x_at) / Fold change /veh PIWIL2 (11732686_x_at) / RFU ORM1 (11744905_x_at) / Fold change /veh ORM1 (11744905_x_at) / RFU CCDC152 (11743942_at) / Fold change /veh CCDC152 (11743942_at) / RFU ECM1 (11717891_a_at) / Fold change /veh ECM1 (11717891_a_at) / RFU IL23R (11748794_a_at) / Fold change /veh IL23R (11748794_a_at) / RFU TNFAIP8L3 (11732012_x_at) / Fold change /veh TNFAIP8L3 (11732012_x_at) / RFU MBOAT4 (11741988_at) / Fold change /veh MBOAT4 (11741988_at) / RFU 11764193_at / Fold change /veh 11764193_at / RFU TMEM53 (11763286_at) / Fold change /veh TMEM53 (11763286_at) / RFU MAGEB2 (11727129_at) / Fold change /veh MAGEB2 (11727129_at) / RFU TMEM200A (11744735_a_at) / Fold change /veh TMEM200A (11744735_a_at) / RFU CCDC152 (11751479_a_at) / Fold change /veh CCDC152 (11751479_a_at) / RFU FAM211A (11726209_a_at) / Fold change /veh FAM211A (11726209_a_at) / RFU RGS16 (11746705_a_at) / Fold change /veh RGS16 (11746705_a_at) / RFU VCAN (11755009_s_at) / Fold change /veh VCAN (11755009_s_at) / RFU RHOB (11743442_s_at) / Fold change /veh RHOB (11743442_s_at) / RFU RGS16 (11720943_a_at) / Fold change /veh RGS16 (11720943_a_at) / RFU RGS16 (11720944_at) / Fold change /veh RGS16 (11720944_at) / RFU, VPS4B / Fold change vs veh, VPS4B / RFU, CREB1 / Fold change vs veh, CREB1 / RFU, DNAJC13 / Fold change vs veh, DNAJC13 / RFU, GNAQ / Fold change vs veh, GNAQ / RFU, CDK5R1 / Fold change vs veh, CDK5R1 / RFU, ZRANB3 / Fold change vs veh, ZRANB3 / RFU, CUL4A / Fold change vs veh, CUL4A / RFU, CCNY / Fold change vs veh, CCNY / RFU, UFL1 / Fold change vs veh, UFL1 / RFU, COG3 / Fold change vs veh, COG3 / RFU, DIAPH2 / Fold change vs veh, DIAPH2 / RFU, SKA2 / Fold change vs veh, SKA2 / RFU, AFF3 / Fold change vs veh, AFF3 / RFU, LMF1 / Fold change vs veh, LMF1 / RFU, IPO11 / Fold change vs veh, IPO11 / RFU, DFFB / Fold change vs veh, DFFB / RFU, FOXP1 / Fold change vs veh, FOXP1 / RFU, CARD8 / Fold change vs veh, CARD8 / RFU, STRN3 / Fold change vs veh, STRN3 / RFU, ADK / Fold change vs veh, ADK / RFU, RASSF2 / Fold change vs veh, RASSF2 / RFU, WIPF1 / Fold change vs veh, WIPF1 / RFU, LARP1B / Fold change vs veh, LARP1B / RFU, RASA1 / Fold change vs veh, RASA1 / RFU, RB1 / Fold change vs veh, RB1 / RFU, PPFIA1 / Fold change vs veh, PPFIA1 / RFU, MAT2A / Fold change vs veh, MAT2A / RFU, CCT5 / Fold change vs veh, CCT5 / RFU, WDR92 / Fold change vs veh, WDR92 / RFU, CUX1 / Fold change vs veh, CUX1 / RFU, TTC7A / Fold change vs veh, TTC7A / RFU, TMEM135 / Fold change vs veh, TMEM135 / RFU, DEPTOR / Fold change vs veh, DEPTOR / RFU, CPM / Fold change vs veh, CPM / RFU, DNAJB6 / Fold change vs veh, DNAJB6 / RFU, CACNA2D3 / Fold change vs veh, CACNA2D3 / RFU, DTX4 / Fold change vs veh, DTX4 / RFU, TFCP2 / Fold change vs veh, TFCP2 / RFU, GMCL1 /// GMCL1P1 / Fold change vs veh, GMCL1 /// GMCL1P1 / RFU, AEBP2 / Fold change vs veh, AEBP2 / RFU, SNHG1 /// SNORD22 /// SNORD25 /// SNORD26 /// SNORD27 /// SNORD28 /// SNORD29 /// SNORD31 / Fold change vs veh, SNHG1 /// SNORD22 /// SNORD25 /// SNORD26 /// SNORD27 /// SNORD28 /// SNORD29 /// SNORD31 / Fold change (Aza/veh), C12orf56 (ProbeSet 11735607_a_at) / Fold change (ACY-1035/veh), C12orf56 (ProbeSet 11735607_a_at) / Fold change (Aza/veh), FGFR1OP (ProbeSet 11751329_s_at) / Fold change (ACY-1035/veh), FGFR1OP (ProbeSet 11751329_s_at) / Fold change (Aza/veh), VPS36 (ProbeSet 11739960_a_at) / Fold change (ACY-1035/veh), VPS36 (ProbeSet 11739960_a_at) / RFU SYPL1 (11715823_x_at) / Fold change /veh SYPL1 (11715823_x_at) / RFU IGFBP7 (11715501_s_at) / Fold change /veh IGFBP7 (11715501_s_at) / RFU REEP3 (11722064_at) / Fold change /veh REEP3 (11722064_at) / RFU IGLL1 (11728026_x_at) / Fold change /veh IGLL1 (11728026_x_at): dose or concentration left out as unconfirmed
# Details: ProbeSet 11719493_s_at; LIST B
structure (smiles),measurement,value
Nc1ccc(-c2cccs2)cc1NC(=O)c1ccc2c(c1)cc(C1CC1)n2CCN1CCOCC1 [ACY-1035],"Fold change vs veh, TAF9",0.84
